The test system of this test is GBS laboratory strains. Nature of the test: MBC90:MIC90 ratio method of determining antibiotic tolerance. The format is cell-based, Group B Streptococcus. The following applies: for MBC / MIC / MIC90: Streptococcus; for MBC: 24 h, ≧90% non-viable cells, plate counts after 24 h antibiotic; for MIC: ≧90% growth-inhibited, OD600; for MIC90: for GBS, as stated under culture conditions. The method, then: The inventors ascertained the incidence of antibiotic tolerance in GBS clinical isolates collected from cervicovaginal-rectal swabs, by investigating cell wall inhibitors used to eliminate GBS colonization in pregnant women before delivery as stated by the CDC guidelines. A ratio of the minimum bactericidal concentration (MBC) over minimum inhibitory concentration (MIC) after 24 h of antibiotic incubation or by determining quantitative kill curves has been used to define antibiotic tolerance previously.
The MBC:MIC ratio was calculated for laboratory strains using three β-lactam antibiotics (Penicillin G, Ampicillin, and Cefazolin) and a glycopeptide antibiotic (Vancomycin) (Table 1). Early-log phase cultures of GBS were treated with the individual antibiotics at a concentration of 0.25 to 512×MIC90. The optical density (OD600) of antibiotic treated cultures was used to determine the MIC90 after 24 h and a cell count was used to determine their MBC90. Susceptible, tolerant and intermediate strains were defined by their MBC:MIC ratio of ≦2:1, ≧32:1 and 4:1-16:1 respectively. […] The ratios characterized GBS strains A909 and 2603V/R as Susceptible, O90R as Tolerant, and NEM316 as Intermediate to Penicillin, Ampicillin, and Cefazolin. All four strains were susceptible to Vancomycin.
(I) Bacterial Strains and Culture Conditions. GBS strains A909 (serotype IA), 515 (serotype IA), NEM316 (serotype III), COHI (serotype III), 2603V/R (serotype V) and O90R (non-typable) were used in this study. E. coli Top10 cells were used for the recombination experiments. GBS was cultured in Todd Hewitt broth (THB) or Tryptic Soy 5% sheep blood (TS) media and E. coli in Luria-broth (LB) medium or agar. Antibiotics were used at the following concentrations: for GBS—penicillin G (MIC90 0.06 μg ml^−1), ampicillin (MIC90 0.12 μg ml^−1), vancomycin (MIC90 2 μg ml^−1), cefazolin (MIC90 1 μg ml^−1) and chloramphenicol (5 μg ml^−1); for E. coli—ampicillin (50 μg ml^−1) and chloramphenicol (5 μg ml^−1). Both GBS and E. coli cultures were grown at 37° C. (II) Tolerance Using the MBC:MIC Ratio Method. Three GBS laboratory strains (i.e., A909, NEM316, and O90R) were cultured overnight for 18 h at 37° C. in THB. Subcultures in THB were subsequently grown to exponential phase (OD600˜0.3; i.e. 5×10^5 cfu/ml) at 37° C. Cell cultures were then exposed to different concentrations of antibiotics (Penicillin G, Ampicillin, Cefozolin or Vancomycin). […] Cell cultures were dispersed every 18 h before OD600 was measured to determine the lowest concentration of antibiotic with 90% growth inhibition (MIC90). Antibiotic treated cells (8 μl) from each well were re-suspended into PBS (100 μl) and plated (54 μl) on TS agar plates and allowed to grow for an additional 24 h at 37° C. Cell count was performed to determine the lowest concentration of antibiotic with 90% killing of original inoculums (MBC90). (III) Penicillin Killing and Regrowth Tolerance Assay by Microbroth Dilution. Three GBS laboratory strains (i.e., A909, NEM316, and O90R) were cultured overnight for 18 h at 37° C. in THB. Subcultures in THB were subsequently grown to exponential phase (OD600˜0.3) at 37° C. Cell cultures were then exposed to different concentrations of Penicillin G (Sigma, St. Louis, Mo.). […] Cell cultures were dispersed. A 1:20 dilution of cells was re-plated into new wells containing fresh THB with 500 U Penase (to degrade residual penicillin). Cell cultures were allowed to re-grow for an additional 24 h at 37° C. before the OD600 was measured. (IV) Measuring Cell Viability by Determining ATP Concentration. GBS strains were cultured for 18 h at 37° C. in THB. These cells were inoculated into fresh THB and subsequently allowed to grow to exponential phase (OD600 0.25-0.3) at 37° C. One ml of each culture was centrifuged at 5,000×g for 4 min. The cell pellet was re-suspended in ATP-free water. […]

By MBC is commonly meant the lowest tested concentration that kills the bacteria rather than only halting them. What is called MIC is the least concentration at which growth counts as inhibited. As a reminder, the MIC90 is an inhibitory concentration at the 90% level, which refers to growth in some studies and to a panel of isolates in others.

As for `CN[C@H](CC(C)C)C(=O)N[C@H]1C(=O)N[C@@H](CC(N)=O)C(=O)N[C@H]2C(=O)N[C@H]3C(=O)N[C@H](C(=O)N[C@H](C(=O)O)c4cc(O)cc(O)c4-c4cc3ccc4O)[C@H](O)c3ccc(c(Cl)c3)Oc3cc2cc(c3O[C@@H]2O[C@H](CO)[C@@H](O)[C@H](O)[C@H]2O[C@H]2C[C@](C)(N)[C@H](O)[C@H](C)O2)Oc2ccc(cc2Cl)[C@H]1O` [Vancomycin], the MIC90 was 2 µg/mL. Where the note is “GBS strain 2603V/R”, the “Ratio (MBC90:MIC90)” value was 1, the MBC came out at 4 µg/mL and the MIC was found to be 4 µg/mL. Further, under “GBS strain A909”, the “Ratio (MBC90:MIC90)” value is recorded as 1, the MBC was found to be 4 µg/mL and the MIC is 4 µg/mL. Where the note is “GBS strain NEM316”, the “Ratio (MBC90:MIC90)” value is listed as 1, the MBC came to 4 µg/mL and the MIC amounted to 4 µg/mL. For the same molecule, under “GBS strain O90R”, the “Ratio (MBC90:MIC90)” value is listed as 1, the MBC came to 4 µg/mL and the MIC stood at 4 µg/mL.

On to `Cc1nnc(SCC2=C(C(=O)O)N3C(=O)[C@@H](NC(=O)Cn4cnnn4)[C@H]3SC2)s1` [Cefazolin], for which the MIC90 was 1 µg/mL. For the same molecule, where the note is “GBS strain 2603V/R”, the “Ratio (MBC90:MIC90)” value is recorded as 2, the MBC came to 0.39 µg/mL and the MIC was found to be 0.19 µg/mL. In addition, under “GBS strain A909”, the “Ratio (MBC90:MIC90)” value is reported as 1, the MBC is 0.19 µg/mL and the MIC turned out to be 0.19 µg/mL. Further, where the note is “GBS strain NEM316”, the “Ratio (MBC90:MIC90)” value is 16, the MBC is 3.12 µg/mL and the MIC worked out at 0.19 µg/mL. Moreover, for the setting “GBS strain O90R”, the “Ratio (MBC90:MIC90)” value was determined as 32, the MBC worked out at 12.5 µg/mL and the MIC worked out at 0.39 µg/mL.

In the case of `CC1(C)S[C@@H]2[C@H](NC(=O)[C@H](N)c3ccccc3)C(=O)N2[C@H]1C(=O)O` [Ampicillin], the MIC90 worked out at 0.12 µg/mL. Also, under “GBS strain 2603V/R”, the “Ratio (MBC90:MIC90)” value amounted to 1, the MBC worked out at 0.48 µg/mL and the MIC turned out to be 0.48 µg/mL. Besides, where the note is “GBS strain A909”, the “Ratio (MBC90:MIC90)” value is 1, the MBC is 0.48 µg/mL and the MIC is 0.48 µg/mL. Under “GBS strain NEM316”, the “Ratio (MBC90:MIC90)” value was 4, the MBC stood at 1.92 µg/mL and the MIC came to 0.48 µg/mL. Also, where the note is “GBS strain O90R”, the MBC came to 15.4 µg/mL and the MIC was found to be 0.96 µg/mL.
